According to patent US20200205318A1, “HEAT TRANSFER FLUIDS, METHODS AND SYSTEMS” (priority 2018, published 2020):

Tests used:
[1] = Flammability / flash point (ASTM D3828, NFPA 30); format: physicochemical
Method: The flash pint of a thermal management fluid refers the lowest temperature at which vapors of the liquid will keep burning after the ignition source is removed as determined in accordance with ASTM D3828.
“Non-flammable” in the context of a thermal management composition or fluid means compounds or compositions which are determined to be non-flammable. The flash point of a thermal management composition or fluid refers the lowest temperature at which vapors of the composition will keep burning after the ignition source is removed as determined in accordance with ASTM D3828.

[2] = Dielectric constant (ASTM D2477-07); format: physicochemical; conditions: at 22° C.
Method: (§1) Applicants have unexpectedly discovered that TFMCB not only meets the challenging performance requirements for high temperature heat transfer applications and for electronic cooling but also satisfies exacting environmental and safety requirements. […] In particular, applicants have determined that TFMCB has a measured dielectric constant of 20 at 22° C. as determined by ASTM D2477-07 and has a measured electrical conductivity of less than 10 nS/cm at 22° C. as determined by ASTM D 2624.

[3] = Electrical conductivity (ASTM D 2624); format: physicochemical; conditions: at 22° C.
Method: as §1

[4] = Acute inhalation toxicity (OECD Guideline No. 403); format: in vivo; conditions: statement in words
Source text: LC50 is a measure of the acute toxicity of a compound. The acute inhalation toxicity of a compound can be assessed using the method described in the OECD Guideline for Testing of Chemicals No. 403 “Acute Inhalation Toxicity” (2009), Method B.2. (Inhalation) of Commission Regulation (EC) No. 440/2008.

With `FC(F)(F)C1(F)CCC1(F)F` (centres unmarked) [TFMCB, 1-trifluoromethyl-1,2,2-trifluorocyclobutane] as the compound, how does the flammability [1] read?
The flammability was “non-flammable”.

And the flash point ([1]; ASTM D3828)?
The flash point was “no flash point below 100° F”.

What about the dielectric constant [2] of the same compound?
Its dielectric constant is 20.

And the electrical conductivity [3]?
Its electrical conductivity is “less than 10 nS/cm”.

And the toxicity [4]?
Its toxicity is “low levels of toxicity”.
